Measurements: PubChem BioAssay (NCI)
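A five-concentration, 48-hour dose response in 96-well plates underlies each endpoint, interpolated linearly between surrounding concentrations. TGI: concentration producing complete growth inhibition.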

How the values were obtained:
Test in all cases: NCI anticancer screen, dose series, 48 h
HOP-92 NSCLC = test system: HOP-92 NSCLC
DLD-1 colon = test system: DLD-1 colon
TK-10 renal = test system: TK-10 renal
SK-MEL-2 melanoma = test system: SK-MEL-2 melanoma
MOLT-4 leukemia = test system: MOLT-4 leukemia
UO-31 renal = test system: UO-31 renal
SF-268 CNS = test system: SF-268 CNS
EKVX NSCLC = test system: EKVX NSCLC
HL-60(TB) leukemia = test system: HL-60(TB) leukemia
UACC-257 melanoma = test system: UACC-257 melanoma
SN12C renal = test system: SN12C renal
NCI-H522 lung = test system: NCI-H522 lung
SF-539 CNS = test system: SF-539 CNS
OVCAR-5 ovarian = test system: OVCAR-5 ovarian
XF 498 CNS = test system: XF 498 CNS
SF-295 CNS = test system: SF-295 CNS
NCI-H226 lung = test system: NCI-H226 lung
M19-MEL melanoma = test system: M19-MEL melanoma
SK-MEL-28 melanoma = test system: SK-MEL-28 melanoma
ACHN renal = test system: ACHN renal
NCI-H460 lung = test system: NCI-H460 lung
U251 CNS = test system: U251 CNS
RPMI-8226 leukemia = test system: RPMI-8226 leukemia
SNB-75 CNS = test system: SNB-75 CNS
SNB-19 CNS = test system: SNB-19 CNS
NCI-H23 lung = test system: NCI-H23 lung
SW-620 colon = test system: SW-620 colon
A549 NSCLC = test system: A549 NSCLC
IGROV1 ovarian = test system: IGROV1 ovarian
M14 melanoma = test system: M14 melanoma
COLO 205 colon = test system: COLO 205 colon
CCRF-CEM leukemia = test system: CCRF-CEM leukemia
OVCAR-4 ovarian = test system: OVCAR-4 ovarian
K-562 leukemia = test system: K-562 leukemia
HCT-116 colon = test system: HCT-116 colon
LOX IMVI melanoma = test system: LOX IMVI melanoma
KM12 colon = test system: KM12 colon
UACC-62 melanoma = test system: UACC-62 melanoma
SK-OV-3 ovarian = test system: SK-OV-3 ovarian
CAKI-1 renal = test system: CAKI-1 renal
SNB-78 CNS = test system: SNB-78 CNS
HCT-15 colon = test system: HCT-15 colon
OVCAR-8 ovarian = test system: OVCAR-8 ovarian
KM20L2 colon = test system: KM20L2 colon
SR leukemia = test system: SR leukemia
HT29 colon = test system: HT29 colon
SK-MEL-5 melanoma = test system: SK-MEL-5 melanoma
HCC-2998 colon = test system: HCC-2998 colon
DMS 273 small cell lung = test system: DMS 273 small cell lung
LXFL 529 NSCLC = test system: LXFL 529 NSCLC
HOP-62 NSCLC = test system: HOP-62 NSCLC
A498 renal = test system: A498 renal

## O=S1c2ccccc2N=C(c2ccc3ccccc3c2)CC1c1ccccc1 (configuration not stated)
HOP-92 NSCLC
  TGI: > 100 µM
DLD-1 colon
  TGI: 48.4 µM
TK-10 renal
  TGI: 68.7 µM
SK-MEL-2 melanoma
  TGI: 92.3 µM
MOLT-4 leukemia
  TGI: > 100 µM
UO-31 renal
  TGI: 32.4 µM
SF-268 CNS
  TGI: 37.2 µM
EKVX NSCLC
  TGI: 91.5 µM
HL-60(TB) leukemia
  TGI: 58.1 µM
UACC-257 melanoma
  TGI: > 100 µM
SN12C renal
  TGI: 73.9 µM
NCI-H522 lung
  TGI: 34.9 µM
SF-539 CNS
  TGI: 37.7 µM
OVCAR-5 ovarian
  TGI: 42.9 µM
XF 498 CNS
  TGI: > 100 µM
SF-295 CNS
  TGI: 36.2 µM
NCI-H226 lung
  TGI: 78.9 µM
M19-MEL melanoma
  TGI: 34.9 µM
SK-MEL-28 melanoma
  TGI: > 100 µM
ACHN renal
  TGI: 31.8 µM
NCI-H460 lung
  TGI: 41 µM
U251 CNS
  TGI: 32.6 µM
RPMI-8226 leukemia
  TGI: 94.4 µM
SNB-75 CNS
  TGI: 38.5 µM
SNB-19 CNS
  TGI: 34.9 µM
NCI-H23 lung
  TGI: 39 µM
SW-620 colon
  TGI: 29.3 µM
A549 NSCLC
  TGI: 41.3 µM
IGROV1 ovarian
  TGI: 40.3 µM
M14 melanoma
  TGI: > 100 µM
COLO 205 colon
  TGI: 40 µM
CCRF-CEM leukemia
  TGI: 81.2 µM
OVCAR-4 ovarian
  TGI: 56.1 µM
K-562 leukemia
  TGI: 62.1 µM
HCT-116 colon
  TGI: 33.6 µM
LOX IMVI melanoma
  TGI: 36.5 µM
KM12 colon
  TGI: 28.8 µM
UACC-62 melanoma
  TGI: > 100 µM
SK-OV-3 ovarian
  TGI: 92.6 µM
CAKI-1 renal
  TGI: > 100 µM
SNB-78 CNS
  TGI: > 100 µM
HCT-15 colon
  TGI: 32.5 µM
OVCAR-8 ovarian
  TGI: 30 µM
KM20L2 colon
  TGI: 35.7 µM
SR leukemia
  TGI: 63.8 µM
HT29 colon
  TGI: 35.1 µM
SK-MEL-5 melanoma
  TGI: > 100 µM
HCC-2998 colon
  TGI: 36.6 µM
DMS 273 small cell lung
  TGI: > 100 µM
LXFL 529 NSCLC
  TGI: 29.8 µM
HOP-62 NSCLC
  TGI: > 100 µM
A498 renal
  TGI: 35.9 µM
